Experimental findings from paper PMC7588843 (Bioactive Materials, 2020) are described below.

≈ marks a conversion by molar mass, not a printed value.

For series [1], the system named is P. falciparum W2 (CQ-resistant) strain. Put plainly: P. falciparum drug susceptibility assay. In kind it is cell-based. Conditions: for SIW2: IC50(NHDF)/IC50(W2); for IC50: Plasmodium falciparum, W2, 72 h, read-out: P. falciparum IC50 W2; for RI (resistance index): ratio of IC50 against W2 and D10 strains.
Series [2] concerns P. falciparum D10 (CQ-sensitive) strain. The series is described as follows: P. falciparum drug susceptibility assay. As to conditions: for IC50: Plasmodium falciparum, D10, 72 h, read-out: P. falciparum IC50 D10; for SID10: IC50(NHDF)/IC50(D10). The class given is cell-based.
In series [3] the test system is human erythrocytes. The series is described as follows: Hemolytic activity in the presence of 10 μM FP. In kind it is cell-based. Conditions: for Hemolysis of human erythrocytes in the presence of FP: 50 and 100 μM, 2 h, 37 °C.
The next series is described as follows: Cytotoxic activity test. The class given is cell-based, human. Conditions: human, NHDF cells.
For series [4], the system named is human erythrocytes. The series is described as follows: Hemolytic activity without FP. The class given is cell-based. Conditions: 50 and 100 μM, 2 h, 37 °C.
Another series concerns NHDF cells. Put plainly: Cytotoxic activity test. As to conditions: 24 and 48 h, MTT, up to twice the IC50 for P. falciparum. In kind it is cell-based, human.
Series [5] can be described thus: In vivo pharmacokinetic evaluation in mice.
The mark [6] stands for this setting: male, CD-1, mouse, plasma, po, 0.02 mg/kg.

The term IC50 denotes the concentration that inhibits the measured activity by half. As for `CCN(CC)CCCC(C)Nc1ccnc2cc(Cl)ccc12` (stereo not shown) [CQ, chloroquine diphosphate, reference compound], in series [1], the SIW2 was determined as 80.5 and the 50% inhibitory concentration (IC50) was 0.262 ± 0.102 µg/mL. Also, in series [2], the IC50 worked out at 0.0184 ± 0.008 µg/mL. Besides, the “Hemolysis of human erythrocytes in the presence of FP” value (shortened to “Hemolysis … of FP”) in the series on human erythrocytes [3] is “drastically increased the percentage of hemolysis”.

In the case of `c1ccc2c(c1)[nH]c1ncccc12` [Compound 1, 9H-1-azacarbazole], the IC50 in series [1] and in series [2] was greater than 5 µg/mL each time.

As to `c1ccc2c(c1)[nH]c1cnccc12` [Compound 2, 9H-2-azacarbazole], 40 ± 1.11 µg/mL (≈ 238 µM) corresponded to half-maximal inhibition in the series “Cytotoxic activity test” (IC50). Moreover, in series [1], the SIW2 was 10.9, the IC50 came to 3.67 ± 0.708 µg/mL (≈ 21.8 µM) and the “RI (resistance index)” value came to 1.1. Also, in series [2], the SID10 stood at 12.0 and the IC50 amounted to 3.33 ± 0.742 µg/mL (≈ 19.8 µM). The “Hemolysis of human erythrocytes without FP” value in the series on human erythrocytes [4] was “None of the examined agents caused significant lysis”. Further, the “Hemolysis … of FP” value in the series on human erythrocytes [3] was “drastically increased the percentage of hemolysis”.

The AUC(0-t) is the area under the concentration-time curve up to a stated or last time point. Low values mean less exposure, high ones more exposure. As a reminder, the CL/F is the apparent clearance, not corrected for the fraction that reaches the circulation. By Cmax is commonly meant the maximum level reached in the sampled fluid or tissue. By MRT is commonly meant the average time that molecules of a dose stay in the body. As a reminder, the Vd/F is the apparent distribution volume after extravascular dosing. By Tmax is commonly meant the time from dosing to the highest level. In the case of `c1ccc2c(c1)[nH]c1ccncc12` [Compound 3, 9H-3-azacarbazole], in the series on NHDF cells, the NHDF cell viability entry is “negligible effect on cell viability”. Besides, in “Cytotoxic activity test”, the IC50 turned out to be 32 ± 1.43 µg/mL (≈ 191 µM). Moreover, in series [1], the SIW2 stood at 14.4, the IC50 was 2.22 ± 0.752 µg/mL (≈ 13.2 µM) and the “RI (resistance index)” value is 1.1. In series [5] (setting [6]), this molecule gave an AUC(0-t) of 1 ng·h/mL, a CL/F of 194 mL/min/kg, a Cmax of 4.67 ng/mL and an MRT of 1.28 h. In series [5] (setting [6]), this molecule had a Vd/F of 19.7 L/kg and a k el of 0.000165 s⁻¹. Moreover, the Tmax in series [5] (male, CD-1, mouse, plasma, po, 0.02 mg/kg, tmax, mice, i.g., 0.02 mg/kg in 3-NE) is no more than 5 min. Further, the “time plasma concentrations detectable after administration” value in series [5] (mice, i.g., 0.02 mg/kg in 3-NE) was “at least 8 h”. Moreover, in series [5] (mice, i.g., 0.02 mg/kg in 3-NE, plasma, 0.02 mg/kg), the t0.5 stood at 70.33 min. Further, in series [2], the SID10 is on record as 16.4 and the IC50 was 1.95 ± 0.263 µg/mL (≈ 11.6 µM). In addition, the “Hemolysis of human erythrocytes without FP” value in the series on human erythrocytes [4] is reported as “None of the examined agents caused significant lysis”. Further, the “Hemolysis … of FP” value in the series on human erythrocytes [3] is given as “drastically increased the percentage of hemolysis”.

`Cc1cccc2c1[nH]c1ncccc12` [Compound 4, 8-methyl-9H-1-azacarbazole]: the IC50 in series [1] and in series [2] was greater than 5 µg/mL throughout.

As for `Cc1ccc2[nH]c3ncccc3c2c1` [Compound 5, 6-methyl-9H-1-azacarbazole], the IC50 in series [1] and in series [2] was greater than 5 µg/mL each time.

`Cc1ccn(C)c2nc3ccccc3c1-2` [Compound 6, 1,4-dimethyl-1H-1-azacarbazole]: the IC50 in “Cytotoxic activity test” was 11.8 ± 0.144 µg/mL (≈ 59.9 µM). Moreover, in series [1], the SIW2 is reported as 2.8, the IC50 turned out to be 4.18 ± 1.04 µg/mL (≈ 21.3 µM) and the “RI (resistance index)” value is on record as 0.9. Besides, in series [2], the SID10 came to 2.6 and the IC50 worked out at 4.42 ± 0.458 µg/mL (≈ 22.5 µM). Further, in the series on human erythrocytes [4], the “Hemolysis of human erythrocytes without FP” value was “None of the examined agents caused significant lysis”. In addition, in the series on human erythrocytes [3], the “Hemolysis with FP compared with CQ-FP, 50 μM” value is reported as “less hemolytic than CQ-FP complexes” and the “Hemolysis … of FP” value is “drastically increased the percentage of hemolysis”.

Regarding `c1cnc2[nH]c3ncccc3c2c1` [Compound 7, 9H-1,8-diazacarbazole], the IC50 in series [1] and in series [2] was greater than 5 µg/mL each time.

Take `c1cc2c(cn1)[nH]c1cnccc12` [Compound 8, 9H-2,7-diazacarbazole]: the IC50 in series [1] and in series [2] was greater than 5 µg/mL throughout.

As to `c1cnc2c(c1)[nH]c1ncccc12` [Compound 9, 9H-1,5-diazacarbazole], the IC50 in series [1] and in series [2] was greater than 5 µg/mL throughout.

`c1cnc2c(c1)[nH]c1cccnc12` [Compound 10, 9H-4,5-diazacarbazole]: the IC50 in series [1] and in series [2] was greater than 5 µg/mL in each case.

With `Cn1cccc2c3cccnc3nc1-2` [Compound 11, 1-methyl-1H-1,8-diazacarbazole], the IC50 in series [1] and in series [2] was greater than 5 µg/mL in each case.

With `Cn1cccc2nc3cccnc3c1-2` [Compound 12, 4-methyl-4H-4,5-diazacarbazole], half-maximal inhibition in the series “Cytotoxic activity test” (IC50) required 42.8 ± 3.31 µg/mL (≈ 234 µM). Moreover, in series [1], the SIW2 came out at 10.7, the IC50 turned out to be 3.99 ± 0.269 µg/mL (≈ 21.8 µM) and the “RI (resistance index)” value is given as 1.3. Further, in series [2], the SID10 was 13.5 and the IC50 was determined as 3.16 ± 0.621 µg/mL (≈ 17.3 µM). In addition, in the series with human erythrocytes [4], the “Hemolysis of human erythrocytes without FP” value was “None of the examined agents caused significant lysis”. For the same molecule, the “Hemolysis with FP compared with CQ-FP, 50 μM” value in the series on human erythrocytes [3] was “less hemolytic than CQ-FP complexes”. Further, the “Hemolysis with FP compared with CQ-FP, 100 μM” value with human erythrocytes [3] (100 μM) was “less hemolytic than CQ-FP complexes”.
